Legend:
786-0 = assay: NCI-60 five-dose SRB assay; format: cell-based; conditions: Homo sapiens; 786-0, Renal cancer, five-dose test
Description: (§1) The anticancer screening of target compounds over a full panel of 60 human cancer cell lines was carried out using Sulforhodamine B (SRB) assay at the National Cancer Institute (NCI), Bethesda, Maryland, USA, employing the standard protocol.

A549/ATCC = assay: NCI-60 five-dose SRB assay; format: cell-based; conditions: Homo sapiens, NSCL cancer, five-dose test
Description: as §1

ACHN = assay: NCI-60 five-dose SRB assay; format: cell-based; conditions: Homo sapiens, Renal cancer, five-dose test
Description: as §1

CAKI-1 = assay: NCI-60 five-dose SRB assay; format: cell-based; conditions: Homo sapiens; CAKI-1, Renal cancer, five-dose test
Description: as §1

CCRF-CEM = assay: NCI-60 five-dose SRB assay; format: cell-based; conditions: Homo sapiens, Leukemia, five-dose test
Description: as §1

COLO 205 = assay: NCI-60 five-dose SRB assay; format: cell-based; conditions: Homo sapiens; COLO 205, Colon cancer, five-dose test
Description: as §1

HCC-2998 = assay: NCI-60 five-dose SRB assay; format: cell-based; conditions: Homo sapiens; HCC-2998, Colon cancer, five-dose test
Description: as §1

HCT-116 = assay: NCI-60 five-dose SRB assay; format: cell-based; conditions: Homo sapiens; HCT-116, Colon cancer, five-dose test
Description: as §1

HL-60(TB) = assay: NCI-60 five-dose SRB assay; format: cell-based; conditions: Homo sapiens, Leukemia, five-dose test
Description: as §1

HOP-62 = assay: NCI-60 five-dose SRB assay; format: cell-based; conditions: Homo sapiens; HOP-62, NSCL cancer, five-dose test
Description: as §1

HOP-92 = assay: NCI-60 five-dose SRB assay; format: cell-based; conditions: Homo sapiens; HOP-92, NSCL cancer, five-dose test
Description: as §1

IGROV1 = assay: NCI-60 five-dose SRB assay; format: cell-based; conditions: Homo sapiens, IGROV-1; IGROV1, Ovarian cancer, five-dose test
Description: as §1

K-562 = assay: NCI-60 five-dose SRB assay; format: cell-based; conditions: Homo sapiens, K562; K-562, Leukemia, five-dose test
Description: as §1

KM12 = assay: NCI-60 five-dose SRB assay; format: cell-based; conditions: Homo sapiens; KM12, Colon cancer, five-dose test
Description: as §1

LOX IMVI = assay: NCI-60 five-dose SRB assay; format: cell-based; conditions: Homo sapiens, Melanoma, five-dose test
Description: as §1

M14 = assay: NCI-60 five-dose SRB assay; format: cell-based; conditions: Homo sapiens; M14, Melanoma, five-dose test
Description: as §1

MALME-3M = assay: NCI-60 five-dose SRB assay; format: cell-based; conditions: Homo sapiens, Melanoma, five-dose test
Description: as §1

MCF7 = assay: NCI-60 five-dose SRB assay; format: cell-based; conditions: Homo sapiens; MCF7, Breast cancer, five-dose test
Description: as §1

MDA-MB-435 = assay: NCI-60 five-dose SRB assay; format: cell-based; conditions: Homo sapiens; MDA-MB-435, Melanoma, five-dose test
Description: as §1

MOLT-4 = assay: NCI-60 five-dose SRB assay; format: cell-based; conditions: Homo sapiens; MOLT-4, Leukemia, five-dose test
Description: as §1

NCI-H226 = assay: NCI-60 five-dose SRB assay; format: cell-based; conditions: Homo sapiens; NCI-H226, NSCL cancer, five-dose test
Description: as §1

NCI-H322M = assay: NCI-60 five-dose SRB assay; format: cell-based; conditions: Homo sapiens, NSCL cancer, five-dose test
Description: as §1

NCI-H522 = assay: NCI-60 five-dose SRB assay; format: cell-based; conditions: Homo sapiens; NCI-H522, NSCL cancer, five-dose test
Description: as §1

OVCAR-3 = assay: NCI-60 five-dose SRB assay; format: cell-based; conditions: Homo sapiens; OVCAR-3, Ovarian cancer, five-dose test
Description: as §1

OVCAR-4 = assay: NCI-60 five-dose SRB assay; format: cell-based; conditions: Homo sapiens; OVCAR-4, Ovarian cancer, five-dose test
Description: as §1

OVCAR-8 = assay: NCI-60 five-dose SRB assay; format: cell-based; conditions: Homo sapiens; OVCAR-8, Ovarian cancer, five-dose test
Description: as §1

RXF 393 = assay: NCI-60 five-dose SRB assay; format: cell-based; conditions: Homo sapiens; RXF 393, Renal cancer, five-dose test
Description: as §1

SF-295 = assay: NCI-60 five-dose SRB assay; format: cell-based; conditions: Homo sapiens; SF-295, CNS cancer, five-dose test
Description: as §1

SF-539 = assay: NCI-60 five-dose SRB assay; format: cell-based; conditions: Homo sapiens; SF-539, CNS cancer, five-dose test
Description: as §1

SK-MEL-28 = assay: NCI-60 five-dose SRB assay; format: cell-based; conditions: Homo sapiens; SK-MEL-28, Melanoma, five-dose test
Description: as §1

SK-MEL-2 = assay: NCI-60 five-dose SRB assay; format: cell-based; conditions: Homo sapiens; SK-MEL-2, Melanoma, five-dose test
Description: as §1

SK-MEL-5 = assay: NCI-60 five-dose SRB assay; format: cell-based; conditions: Homo sapiens; SK-MEL-5, Melanoma, five-dose test
Description: as §1

SNB-75 = assay: NCI-60 five-dose SRB assay; format: cell-based; conditions: Homo sapiens; SNB-75, CNS cancer, five-dose test
Description: as §1

SW-620 = assay: NCI-60 five-dose SRB assay; format: cell-based; conditions: Homo sapiens; SW-620, Colon cancer, five-dose test
Description: as §1

T-47D = assay: NCI-60 five-dose SRB assay; format: cell-based; conditions: Homo sapiens, T47D, Breast cancer, five-dose test
Description: as §1

U251 = assay: NCI-60 five-dose SRB assay; format: cell-based; conditions: Homo sapiens, U-251; U251, CNS cancer, five-dose test
Description: as §1

UACC-257 = assay: NCI-60 five-dose SRB assay; format: cell-based; conditions: Homo sapiens; UACC-257, Melanoma, five-dose test
Description: as §1

UACC-62 = assay: NCI-60 five-dose SRB assay; format: cell-based; conditions: Homo sapiens; UACC-62, Melanoma, five-dose test
Description: as §1

MDA-MB-231/ATCC = assay: cells; conditions: Homo sapiens
Description: as §1

MDA-MB-468 = assay: cells; conditions: Homo sapiens
Description: as §1

PC-3 = assay: cells; conditions: Homo sapiens
Description: as §1

C-RAF = C-RAF (Homo sapiens, UniProt P04049); assay: HotSpot kinase assay (RBC), C-RAF; conditions: IC50 C-RAF
Description: Reaction Biology Corporation (RBC) Kinase HotSpotSM service was utilized for cell-free biochemical kinase evaluation of the target compounds according to the reported assay protocol [46].

[1] = 10 µM ATP, 10-dose singlicate IC50 mode

Sequence of C-RAF (P04049 whole entry): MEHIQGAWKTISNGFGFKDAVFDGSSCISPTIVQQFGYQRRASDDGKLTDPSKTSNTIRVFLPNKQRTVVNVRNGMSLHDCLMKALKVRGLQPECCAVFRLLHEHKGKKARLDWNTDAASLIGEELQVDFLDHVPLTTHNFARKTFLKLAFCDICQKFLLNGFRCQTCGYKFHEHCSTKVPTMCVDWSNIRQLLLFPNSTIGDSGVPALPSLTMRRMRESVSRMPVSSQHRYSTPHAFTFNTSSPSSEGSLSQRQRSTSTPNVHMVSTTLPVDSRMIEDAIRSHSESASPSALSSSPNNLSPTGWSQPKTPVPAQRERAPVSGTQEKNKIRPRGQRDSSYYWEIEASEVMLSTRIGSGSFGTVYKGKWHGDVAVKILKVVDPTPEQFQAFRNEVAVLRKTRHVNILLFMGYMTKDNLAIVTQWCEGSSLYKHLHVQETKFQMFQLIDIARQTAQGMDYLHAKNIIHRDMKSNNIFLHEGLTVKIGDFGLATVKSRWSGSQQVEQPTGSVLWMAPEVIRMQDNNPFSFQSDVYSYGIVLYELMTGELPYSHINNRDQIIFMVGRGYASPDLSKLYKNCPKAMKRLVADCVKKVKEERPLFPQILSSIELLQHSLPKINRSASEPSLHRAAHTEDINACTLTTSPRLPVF

## CN1CCCN(Cc2ccc(C(=O)Nc3cccc(Nc4ccc5c(O)cccc5n4)c3)cc2C(F)(F)F)CC1 [Compound 17b, N-(3-((5-hydroxyquinolin-2-yl)amino)phenyl)-4-((4-methyl-1,4-diazepan-1-yl)methyl)-3-(trifluoromethyl)benzamide]
786-0
  GI50: 2.06 µM
A549/ATCC
  GI50: 3.63 µM
ACHN
  GI50: 1.92 µM
CAKI-1
  GI50: 1.79 µM
CCRF-CEM
  GI50: 2.07 µM
COLO 205
  GI50: 1.83 µM
HCC-2998
  GI50: 1.8 µM
HCT-116
  GI50: 1.62 µM
HL-60(TB)
  GI50: 2.35 µM
HOP-62
  GI50: 2.03 µM
HOP-92
  GI50: 1.64 µM
IGROV1
  GI50: 2.56 µM
K-562
  GI50: 2.18 µM
KM12
  GI50: 1.98 µM
LOX IMVI
  GI50: 1.63 µM
M14
  GI50: 1.89 µM
MALME-3M
  GI50: 1.7 µM
MCF7
  GI50: 1.68 µM
MDA-MB-435
  GI50: 1.78 µM
MOLT-4
  GI50: 2.11 µM
NCI-H226
  GI50: 16.7 µM
NCI-H322M
  GI50: 3.27 µM
NCI-H522
  GI50: 1.84 µM
OVCAR-3
  GI50: 1.97 µM
OVCAR-4
  GI50: 3.83 µM
OVCAR-8
  GI50: 2.51 µM
RXF 393
  GI50: 1.85 µM
SF-295
  GI50: 1.67 µM
SF-539
  GI50: 1.7 µM
SK-MEL-28
  GI50: 1.82 µM
SK-MEL-2
  GI50: 1.81 µM
SK-MEL-5
  GI50: 1.72 µM
SNB-75
  GI50: 1.32 µM
SW-620
  GI50: 1.95 µM
T-47D
  GI50: 3.46 µM
U251
  GI50: 2.07 µM
UACC-257
  GI50: 1.6 µM
UACC-62
  GI50: 1.69 µM
MDA-MB-231/ATCC
  GI50: 1.65 µM
MDA-MB-468
  GI50: 1.66 µM
PC-3
  GI50: 1.87 µM
C-RAF; [1]
  IC50: 0.0653 ± 0.0006 µM

## CN1CCN(Cc2ccc(C(=O)Nc3cccc(Nc4ccc5cc(O)ccc5n4)c3)cc2C(F)(F)F)CC1 [Compound 18a, N-(3-((6-hydroxyquinolin-2-yl)amino)phenyl)-4-((4-methylpiperazin-1-yl)methyl)-3-(trifluoromethyl)benzamide]
786-0
  GI50: 3.13 µM
A549/ATCC
  GI50: 8.7 µM
ACHN
  GI50: 7.59 µM
CAKI-1
  GI50: 11.9 µM
CCRF-CEM
  GI50: 3.48 µM
COLO 205
  GI50: 10.2 µM
HCC-2998
  GI50: 2.39 µM
HCT-116
  GI50: 3.93 µM
HL-60(TB)
  GI50: 2.58 µM
HOP-62
  GI50: 12.1 µM
HOP-92
  GI50: 3.39 µM
IGROV1
  GI50: 16.6 µM
K-562
  GI50: 1.88 µM
KM12
  GI50: 3.16 µM
LOX IMVI
  GI50: 1.73 µM
M14
  GI50: 9.06 µM
MALME-3M
  GI50: 1.59 µM
MCF7
  GI50: 2.46 µM
MDA-MB-435
  GI50: 8.53 µM
MOLT-4
  GI50: 3.52 µM
NCI-H226
  GI50: 16 µM
NCI-H322M
  GI50: 11 µM
NCI-H522
  GI50: 4.82 µM
OVCAR-3
  GI50: 11.2 µM
OVCAR-4
  GI50: 11.2 µM
OVCAR-8
  GI50: 13.2 µM
RXF 393
  GI50: 3.55 µM
SF-295
  GI50: 2.33 µM
SF-539
  GI50: 1.98 µM
SK-MEL-28
  GI50: 1.79 µM
SK-MEL-2
  GI50: 13.5 µM
SK-MEL-5
  GI50: 2.35 µM
SNB-75
  GI50: 0.656 µM
SW-620
  GI50: 2.3 µM
T-47D
  GI50: 14.6 µM
U251
  GI50: 2.17 µM
UACC-257
  GI50: 7.35 µM
UACC-62
  GI50: 15.4 µM
MDA-MB-231/ATCC
  GI50: 2.54 µM
MDA-MB-468
  GI50: 2.23 µM
PC-3
  GI50: 4.68 µM
C-RAF; 1 µM ATP
  IC50: 0.0293 ± 0.009 µM
C-RAF; [1]
  IC50: 0.0676 ± 0.0051 µM

## CN1CCCN(Cc2ccc(C(=O)Nc3cccc(Nc4ccc5cc(O)ccc5n4)c3)cc2C(F)(F)F)CC1 [Compound 18b, N-(3-((6-hydroxyquinolin-2-yl)amino)phenyl)-4-((4-methyl-1,4-diazepan-1-yl)methyl)-3-(trifluoromethyl)benzamide]
786-0
  GI50: 16 µM
A549/ATCC
  GI50: 16.2 µM
ACHN
  GI50: 19.7 µM
CAKI-1
  GI50: 14.1 µM
CCRF-CEM
  GI50: 4.94 µM
COLO 205
  GI50: 18.5 µM
HCC-2998
  GI50: 16.5 µM
HCT-116
  GI50: 6.51 µM
HL-60(TB)
  GI50: 11.9 µM
HOP-62
  GI50: 17.8 µM
HOP-92
  GI50: 10.4 µM
IGROV1
  GI50: 17.2 µM
K-562
  GI50: 1.18 µM
KM12
  GI50: 14.1 µM
LOX IMVI
  GI50: 12.1 µM
M14
  GI50: 12.7 µM
MALME-3M
  GI50: 12.6 µM
MCF7
  GI50: 9.83 µM
MDA-MB-435
  GI50: 10.4 µM
MOLT-4
  GI50: 2.05 µM
NCI-H226
  GI50: 13.8 µM
NCI-H322M
  GI50: 16.2 µM
NCI-H522
  GI50: 17 µM
OVCAR-3
  GI50: 16.3 µM
OVCAR-4
  GI50: 15 µM
OVCAR-8
  GI50: 18.9 µM
RXF 393
  GI50: 12.5 µM
SF-295
  GI50: 17.3 µM
SF-539
  GI50: 11.3 µM
SK-MEL-28
  GI50: 13.9 µM
SK-MEL-2
  GI50: 17.2 µM
SK-MEL-5
  GI50: 16.1 µM
SNB-75
  GI50: 1.17 µM
SW-620
  GI50: 14.5 µM
T-47D
  GI50: 15.8 µM
U251
  GI50: 14.8 µM
UACC-257
  GI50: 14.7 µM
UACC-62
  GI50: 15.9 µM
MDA-MB-231/ATCC
  GI50: 13.9 µM
MDA-MB-468
  GI50: 8.88 µM
PC-3
  GI50: 13.1 µM
C-RAF; [1]
  IC50: 0.161 ± 0.0301 µM
